IC50 data for three compounds are collected here from BindingDB's records for patent US10934302 (Relay Therapeutics, 2021).

This test deals with T1, Tyrosine-protein phosphatase non-receptor type 11 (Homo sapiens, UniProt Q06124).
T1 sequence (Q06124 whole entry): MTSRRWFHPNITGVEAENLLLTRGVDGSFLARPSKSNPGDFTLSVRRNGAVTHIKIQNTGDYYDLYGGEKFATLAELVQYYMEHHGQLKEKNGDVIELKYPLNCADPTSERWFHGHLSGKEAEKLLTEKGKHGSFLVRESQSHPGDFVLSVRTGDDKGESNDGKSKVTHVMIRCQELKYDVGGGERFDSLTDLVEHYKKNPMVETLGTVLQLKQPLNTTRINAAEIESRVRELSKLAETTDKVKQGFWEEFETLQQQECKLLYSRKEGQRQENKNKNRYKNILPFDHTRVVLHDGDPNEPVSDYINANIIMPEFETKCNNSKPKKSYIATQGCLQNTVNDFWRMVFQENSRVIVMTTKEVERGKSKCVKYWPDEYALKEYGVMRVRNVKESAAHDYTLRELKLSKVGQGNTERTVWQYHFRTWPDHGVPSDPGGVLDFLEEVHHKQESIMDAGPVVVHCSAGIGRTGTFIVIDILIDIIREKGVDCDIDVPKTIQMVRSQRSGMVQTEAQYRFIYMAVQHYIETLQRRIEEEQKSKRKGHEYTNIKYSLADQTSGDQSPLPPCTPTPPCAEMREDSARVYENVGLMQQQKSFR
In words: Allosteric Inhibition Assay.
With `N[C@@H]1c2ccccc2CC12CCN(c1cnc(/C(=N/O)c3ccccc3)cn1)CC2` [US10934302, Example 257], the 50% inhibitory concentration (IC50) was less than 50 nM.

In the case of `Cc1cc(C(=O)N2CCC3(CC2)Cc2ccccc2[C@H]3N)nn1-c1ccc(F)cc1F` [US10934302, Example 289], the IC50 was less than 50 nM.

Compound `N[C@@H]1c2ccccc2CC12CCN(c1cnc(SCC3CC3)cn1)CC2` [US10934302, Example 266] displayed an IC50 of less than 50 nM.

The term IC50 denotes the midpoint of a concentration-inhibition curve.
